Patent US20170101670A1, “METHOD FOR DETECTING RARE MUTATION” (NATIONAL CANCER CENTER, priority 2015, published 2017)

Tested on: Human TK6 lymphoblasts
Assay: Induction of point mutation of genomic DNA by mutagen in cultured cells, detected by sequencing 100 copies of genomic DNA
Type: cell-based
Conditions: TK6 cells exposed to 0, 0.1, 0.3, 1, 3, 10 or 30 μM for 24 hours, collected day 7; variants with ratio 0.8 to 10% counted; three independent analyses; FIG. 2
Method: In Example 1, N-nitroso-N-methylurea (hereinafter referred to as “MNU”) that was a mutagen was administered to cultured cells, to induce a point mutation of genomic DNA. Then, mutation was detected by the detection method of this embodiment, and the appearance frequency of the mutation was calculated. This analysis was independently performed three times.
Human TK6 lymphoblasts (hereinafter, referred to as “TK6 cell”) were obtained from American Type Culture Collection. On day 0, 1×10^5 cells of TK6 cells were seeded on a 10 cm plate. On day 1, the TK6 cells were exposed to MNU (Sigma) in a concentration of 0, 0.1, 0.3, 1, 3, 10 or 30 μM for 24 hours. On day 7, the number of cells was counted, and the cells were collected. Then, genomic DNA was extracted by phenol/chloroform method.
The copy number of the extracted genomic DNA was determined quantitatively by real-time PCR using SYBR (registered trademark) green I (BioWhittaker Molecular Applications) and iCycler Thermal Cycler (Bio-Rad Laboratories, Inc.). In the table, “F” means a forward primer, and “R” means a reverse primer. Each sample was measured using three kinds of primers. […]
A sample containing 100 copies of genomic DNA was prepared, based on the measurement result of the copy number. […] The average number of reads of sequencing was 5,000. Among the analyzed 48,587 bases, 15,724 bases were selected. […]

CN(N=O)C(N)=O [MNU, N-nitroso-N-methylurea]
appearance frequency of point mutation (somatic mutation induced by mutagen): correlation between the administration amount of MNU and the accumulation of mutations
